{"source": "paper PMC9103660", "about": "“Two Novel Antihypertensive Peptides Identified in Millet Bran Glutelin-2 Hydrolysates: Purification, In Silico Characterization, Molecular Docking with ACE and Stability in Various Food Processing Conditions” (Foods, 2022)", "key": {"[1]": {"tested_on": "ACE", "set-up": "method as in 2 sources, ref 34, 35 = [34]; PMID 32220144; doi:10.1111/1750-3841.15115; 34. Zheng Y.J. Wang X. Zhuang Y.L. Li Y. Shi P.Q. Tian H.L. Li X.T. Chen X. Isolation of novel ACE-inhibitory peptide from naked oat globulin hydrolysates in silico approach: Molecular docking, in viv || [35]; PMID 29606478; doi:10.1016/j.foodchem.2018.02.107; 35. Tu M. Wang C. Chen C. Zhang R. Liu H. Lu W. Jiang L. Du M. Identification of a novel ACE-inhibitory peptide from casein and evaluation of the inhibitory mechanisms Food Chem. 2018 256 98 104 10.10 ||| ref 20 = [20]; doi:10.1016/j.jff.2016.11.021; 20. Zheng Y.J. Li Y. Zhang Y.L. Ruan X.H. Zhang R.G. Purification, characterization, synthesis, in vivo ACE inhibition and in vitro antihypertensive activity of bioactive peptides derived from palm ke", "settings": "cited from earlier work; for IC50: literature peptides, read-out: IC50 (ACE inhibition)"}, "[2]": {"settings": "proline-rich literature peptides; cited from earlier work", "source_text": "ACE-inhibitory peptides should have sufficient resistance to digestion by proteases existing in the gastrointestinal tract to exert antihypertension activity in the body."}, "[3]": {"tested_on": "ACE", "assay": "ACE inhibition after simulated gastrointestinal digestion", "assay_type": "in vitro ADME", "settings": "simulated gastric fluid (pepsin, pH 2.0) 90 min then simulated intestinal fluid (trypsin, bile salt, pH 6.8) 180 min, 37 °C, peptide 1 mg/mL; read-out ACE IC50 before/after", "description": "As per the same procedure described by Jimsheena and Gowda, the inhibition of ACE was evaluated by comparing the quantity of produced hippuric acid before and after the addition of the peptides. The IC50 value was calculated from the regression equation of ACE inhibition percentage for different concentrations of the sample and defined as the concentration of sample inhibiting ACE activity by 50%.\nMixtures of trypsin (0.45 g), pig bile salt (3 g) and NaHCO3 (6.25 g) dissolved in 100 mL of dH2O (pH 6.8) were used to simulate the intestinal fluid, whereas pepsin (40 mg) and NaCl (0.877 g) dissolved in 100 mL of dH2O (pH 2.0) were used to simulate the gastric fluid (Sun et al., 2021). Peptide solutions (dissolved in ultrapure water, 1 mg/mL) were incubated at 37 °C in a stirring bath (140 r/min) for 15 min, and then the simulated gastric fluid was added (gastric fluid: peptide solution = 1: 10 v/v), and the mixture was further incubated at 37 °C (140 r/min) for 90 min. Then, the reaction solution was adjusted to pH 6.8 with Na2HPO4. The simulated intestinal fluid (the fluid: peptide solution = 1: 10, v/v) was added, and the mixture was stirred (140 r/min) at 37 °C for 180 min. All reaction solutions were heated at 100 °C for 8 min to inactivate the enzymes. The ACE inhibition activities of the peptides before and after digestion were separately determined to evaluate their stability."}}, "note": "“Also recorded” adds a separate entry of the source. Peptide text beside a SMILES is read from it.", "data": [{"compound": "NMAINPSKENLCSTFCK", "values": [{"measurement": "inhibition mode towards ACE", "setting": "[1]", "value": "a competitive inhibitor of ACE"}, {"measurement": "IC50", "setting": "[1]", "value": 129, "unit": "µM"}]}, {"compound": "SSYYPFK", "values": [{"measurement": "inhibition mode towards ACE", "setting": "[1]", "value": "a competitive inhibitor"}, {"measurement": "IC50", "setting": "[1]", "value": 91.8, "unit": "µM"}, {"measurement": "stability during gastrointestinal digestion", "setting": "[2]", "value": "excellent stability"}]}, {"compound": "LHPQ [proline-rich peptide identified in canary seeds]", "values": [{"measurement": "stability during gastrointestinal digestion", "setting": "[2]", "value": "excellent stability"}]}, {"compound": "ELHPQ [proline-rich peptide identified in canary seeds]", "values": [{"measurement": "stability during gastrointestinal digestion", "setting": "[2]", "value": "excellent stability"}]}, {"compound": "CSCC[C@H](NC(=O)[C@@H]1CCCN1C(=O)[C@@H]1CCCN1)C(=O)N[C@@H](Cc1c[nH]c2ccccc12)C(=O)N1CCC[C@H]1C(=O)N[C@@H](Cc1ccccc1)C(=O)N[C@H](C(=O)O)C(C)C", "note": "[PPMWPFV, Pro-Pro-Met-Trp-Pro-Phe-Val] (H-PPMWPFV-OH)", "values": [{"measurement": "stability during simulated gastrointestinal digestion", "setting": "[3]", "value": "resistant; also recorded: relatively stable; also recorded: relatively high stability"}]}, {"compound": "KPVPR [proline-rich peptide identified in canary seeds]", "values": [{"measurement": "stability during gastrointestinal digestion", "setting": "[2]", "value": "excellent stability"}]}, {"compound": "CC(C)C[C@H](NC(=O)[C@H](CC(C)C)NC(=O)[C@@H]1CCCN1)C(=O)N[C@@H](CCCCN)C(=O)O", "note": "[PLLK, Pro-Leu-Leu-Lys] (H-PLLK-OH)", "values": [{"measurement": "stability during simulated gastrointestinal digestion", "setting": "[3]", "value": "resistant; also recorded: relatively stable; also recorded: relatively high stability"}]}]}
